The values below come from article PMC8308845, “Discovery of Novel Chemical Series of OXA-48 β-Lactamase Inhibitors by High-Throughput Screening” (Pharmaceuticals, 2021).

One data set deals with T1, OXA-48 (Klebsiella pneumoniae, UniProt Q6XEC0).
T1 construct: made in house; host or cells: E. coli BL21(DE3), T7 expression system
In words: Apparent Km and Vmax of nitrocefin with inhibitor; Ki and α determination. Format: biochemical. The conditions noted are these: for type of reversible inhibition: Lineweaver–Burk plots, with respect to nitrocefin; for α value: mixed model inhibition fit. On the procedure:
To further elucidate the type of reversible inhibition of compounds ID1 and ID2, double substrate (nitrocefin) and inhibitor titrations were run.
In this study, the characterization of the type of reversible inhibition was performed by the determination of the apparent Km and Vmax of nitrocefin in the presence of three concentrations of the selected inhibitors.
Stock AC30, AC50, and AC70 solutions for selected compounds were prepared at 200X in 100% DMSO. 2X compounds were prepared by diluting stock AC30, AC50 and AC70 solutions 1:100 in 1X reaction buffer.
20 μL of 2X compounds with 1% DMSO; 10 μL 4X enzyme (0.0014 ng/µL OXA-48 final concentration) were dispensed into preincubation plate and kept for 15′ at rt. […] Each compound ACn was tested in duplicate against each dose of nitrocefin. Compound activity was quantified on the fluorescence signal measured at 520 nm (kinetic measurement for 60 min of reaction). The initial velocity (V0) of the reaction was computed in the first 300′’ of measurements as robust slope. The slopes computed by Genedata Screener 13.0.5. were copied in GraphPad Prism (version 7.00, GraphPad Software Inc.) for the Michaelis-Menten analysis and the Lineweaver-Burk analysis. The average of slope replicates (n = 2) was transformed into double-reciprocal and linear regression analysis was applied.
a. When the Vmax value was independent from inhibitor concentration and the Km value of the substrate was directly proportional to the inhibitor concentration, the corresponding compound was assigned as competitive inhibitor.
V0 data obtained for the determination of apparent Km and Vmax of nitrocefin in the presence of three concentrations of the selected inhibitors, were used for the computation of Ki and a values using in GraphPad Prism (version 8.00, GraphPad Software Inc.) the mixed model inhibition/nonlinear regression curve fit method.

The next data set has as its system E. coli ATCC25922. Description: MIC by broth microdilution, antibiotic-sensitive strain. The settings on record: Escherichia coli, no β-lactam, BLI tested at 32 µg/mL, read-out: MIC, BLI alone. Format: cell-based. The text has this:
To evaluate the capability of restoring β-lactam susceptibility, the two most promising representatives of SC_2 (ID3) and SC_7 (ID2) were screened alone and in combination with ampicillin (AMP) and IMP against sensitive and resistant Gram-negative bacteria. Avibactam and tazobactam were also included in the MIC characterization as BLI reference compounds. Specifically, we used E. coli ATCC25922 as antibiotic-sensitive strain, while E. coli ATCC BAA-2523 and K. pneumoniae ATCC BAA-2524 as β-lactam-resistant bacteria, producing OXA-48 carbapenemase.
Test compounds and tazobactam were tested at 32 µg/mL, while avibactam was applied at 4 µg/mL. […] Both antibiotics were selected for the combination study as they can be hydrolyzed by the target OXA-48 enzyme.
MIC values were determined by the broth dilution method and interpreted using published guidelines described by Clinical and Laboratory Standards Institute (CLSI).
All BLIs were dissolved in 100% DMSO and they were tested at a fixed concentration of 32 µg/mL and 1% of DMSO final concentration. Avibactam was used as reference β-lactamase inhibitor. All antimicrobials were prepared in line with CLSI susceptibility testing standards. AMP (USP # 1033000; batch no. K1M493) was dissolved at 5.12 mg/mL, IMP (USP # 1337809; batch no. R038R0) and avibactam (Biochem # NXL 104; batch no. 20180726) were dissolved at 1.28 mg/mL in the respective solvents recommended by CLSI (2). Solutions at 4X the final concentrations of the test range were made in Cation adjusted Mueller-Hinton broth (CA-MHB, BD # 212322; batch no. 6117994; Expiry date: 29.02.2020) by serial dilutions, and then diluted 2-fold with CA-MHB (for antimicrobials alone), or with the BLIs/avibactam (for combinations of new/reference inhibitors and antimicrobials). Moreover, all BLIs were tested alone at a fixed concentration of 32 μg/mL. The final concentration of DMSO in the test tubes was 1% for each different combination.
50 μL of each well were then transferred from the masterblock into 96-well plates to whom were then added 50 μL of the final inoculum. MIC tests were performed by broth microdilution in line with CLSI susceptibility testing standards. Bacterial inocula were prepared at ca. 1 × 10^6 CFU/mL by diluting 100-fold a 0.5 McFarland suspension in CA-MHB with TES (TREK Diagnostic Systems, Product code: T3462; Batch: 356347; Expiry date: 12-Jun-2019). 50 μL of antibacterial solutions at 2 × the final concentrations were diluted 2-fold with 50 μL of inoculum to give a final inoculum of ca. 5 × 10^5 CFU/mL and desired test concentrations of antibacterial agents. Test plates were incubated according to CLSI guidelines and read visually. MIC values corresponded to the first well with no visible growth.
(Broth dilution looks for growth in wells or tubes with falling amounts of substance.)

Data set [1] is described as follows: Aqueous solubility assay (PBS, pH 7.4). Format: physicochemical. The settings on record: isotonic buffer pH 7.4, aqueous buffer, kinetic from dmso stock, buffered aqueous solution at pH 7.4, 200 μM nominal, 2% DMSO, room temperature. The procedure:
(§1) Based on the promising BLI profile of compound ID2, a preliminary in vitro ADMET assessment in terms of kinetic solubility and cytotoxicity was carried out. […] Also, it was tested for cell viability in dose response against HepG2 cells, following 48 h incubation time.
Compound was dissolved in DMSO as stock solution and then added to isotonic buffer (pH 7.4) at a concentration of 200 μM (2% DMSO final concentration). After a 24 h incubation under shaking at room temperature, dissolved compound is measured by a chromatographic procedure with photodiode array detection. Metoprolol tartrate, rifampicin, ketoconazole, phenytoin, haloperidol, simvastatin, diethylstilbestrol, and tamoxifen were used as reference compounds for different solubility degrees.

In another data set the test system is HepG2 cells. In words: Cytotoxicity assay (cell viability, alamarBlue). Format: cell-based. The settings on record: 48 h incubation, dose response. The procedure:
as §1
Compound ID2 was tested in cell viability assays with HepG2 cells. The viability of cultured cells was evaluated using alamarBlue staining as described by Nociari et al.. Concentration–response curves were prepared for each compound by testing eight concentrations in triplicate with three-fold dilutions starting from 100 µM to […]. After incubation for 48 h at 37 °C, the percentage of control activity was calculated by comparing the fluorescence reading in the presence of the test compound to that in the absence of a test compound (control). IC50 values were determined by non-linear regression analysis of the concentration–response curves. These parameters were obtained by Hill equation curve fitting. Chlorpromazine was used as a reference compound.

Each structure is given as a SMILES string. Values after ≈ are worked out from the molar mass of the structure shown.

A word on the MIC: it is the lowest concentration that inhibits growth of the organism. As a reminder, the solubility (kinetic) is the concentration staying in solution when a stock, usually in DMSO, is diluted into the medium.

T1 sequence (Q6XEC0 23-265, looked up): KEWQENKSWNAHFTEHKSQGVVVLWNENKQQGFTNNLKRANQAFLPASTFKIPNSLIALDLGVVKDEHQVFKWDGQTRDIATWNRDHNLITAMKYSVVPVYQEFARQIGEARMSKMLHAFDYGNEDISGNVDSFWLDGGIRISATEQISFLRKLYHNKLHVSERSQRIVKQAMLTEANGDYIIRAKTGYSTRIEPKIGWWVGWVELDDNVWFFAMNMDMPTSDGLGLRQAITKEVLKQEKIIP

As for `O=C(O)c1ccc(C=Nn2c(S)nnc2-c2ccccc2)cc1` [ID1], at OXA-48, the “type of reversible inhibition” value is “competitive” and the α value worked out at 5.50.
As to `CCc1ccc(-c2n[nH]c3nc(-c4ccc(C(=O)O)cc4)cc(C(=O)O)c23)cc1` [ID2], on OXA-48, the “type of reversible inhibition” value is “competitive” and the α value turned out to be 5.44. Besides, in the data set with E. coli ATCC25922, the MIC is more than 32 µg/mL. In data set [1], the solubility (kinetic) at 24 h was 179 µM (≈ 69.5 µg/mL). In addition, the “cytotoxicity (no sign of toxicity up to the highest tested concentration)” value in the data set on HepG2 cells is more than 100 µM.
